{"source": "patent US7790887B2", "about": "“Macrolide compound in solid form, process for preparation thereof, and pharmaceutical composition containing the same” (Eisai R&D Management Co., Ltd., priority 2007, dated 2010)", "data": [{"assay": "Comparison of solubility: time required for complete dissolution of solid forms in pH 5.0 buffer", "format": "physicochemical", "settings": "25 mM potassium acetate buffer solution (pH 5.0), room temperature, concentration of 5 mg/mL, shaken at about 100 rpm", "description": "(Comparison of Solubility)\nNext, the length of time required to dissolve about […] of the solid forms of formula (I) compound at room temperature in a pH 5.0 acetic acid buffer solution were measured.\nAfter adding, at room temperature, a 25 mM potassium acetate buffer solution (pH 5.0) to, respectively, 10 mg of the white crystals prepared in Example 7, 10 mg of the amorphous powder prepared in Example 10, and 5 mg of the amorphous mass prepared in Example 11 in order to make a concentration of 5 mg/mL in each sample, the length of time required for complete dissolution under shaken at about 100 rpm was measured.", "values": [{"smiles": "CCC(O)C(C)C1OC1CC(C)(O)/C=C/C=C(\\C)C1OC(=O)CC(O)CCC(C)(O)C(OC(=O)N2CCN(C3CCCCCC3)CC2)/C=C/C1C", "note": "(stereo not drawn) [Amorphous powder, (8E,12E,14E)-7-{(4-cycloheptylpiperazin-1-yl)carbonyl}oxy-3,6,16,21-tetrahydroxy-6,10,12,16,20-pentamethyl-18,19-epoxytricosa-8,12,14-trien-11-olide]", "time required for dissolution": "about 10 seconds"}, {"smiles": "CCC(O)C(C)C1OC1CC(C)(O)/C=C/C=C(\\C)C1OC(=O)CC(O)CCC(C)(O)C(OC(=O)N2CCN(C3CCCCCC3)CC2)/C=C/C1C", "note": "(stereo not drawn) [Amorphous mass, (8E,12E,14E)-7-{(4-cycloheptylpiperazin-1-yl)carbonyl}oxy-3,6,16,21-tetrahydroxy-6,10,12,16,20-pentamethyl-18,19-epoxytricosa-8,12,14-trien-11-olide]", "time required for dissolution": "about 215 seconds"}, {"smiles": "CCC(O)C(C)C1OC1CC(C)(O)/C=C/C=C(\\C)C1OC(=O)CC(O)CCC(C)(O)C(OC(=O)N2CCN(C3CCCCCC3)CC2)/C=C/C1C", "note": "(stereo not drawn) [Crystals, (8E,12E,14E)-7-{(4-cycloheptylpiperazin-1-yl)carbonyl}oxy-3,6,16,21-tetrahydroxy-6,10,12,16,20-pentamethyl-18,19-epoxytricosa-8,12,14-trien-11-olide]", "time required for dissolution": "about 32 seconds"}]}]}
